Assays:
[1] = tested on: Bulbar Conjunctiva (conjunctival hyperemia); assay: Guinea pig conjunctival hyperemia model; type: in vivo; conditions: cumulative incidence; percent of eyes scoring +2 or more; scored 1, 2, 3, 4 hours after instillation
Method: A guinea pig model was used to assess the potential of the compounds to cause conjunctival hyperemia as measured by vasodilation. Compound was instilled and hyperemia was scored at 1, 2, 3, and 4 hours following dosing. Reported above is the cumulative incidence of hyperemia over the 4 hour period. Incidence of hyperemia (Bulbar Conjunctiva) was calculated as the percent of eyes scoring +2 or more, according to the following graded scale: 0 Normal appearance of vessels at limbus and rectus muscle 1 Enlargement of vessels normally visible at limbus and rectus muscle 2 Branching of vessels at limbus, additional vessels visible 3 Additional vessels visible in open bulbar conjunctival areas 4 Diffuse redness in open bulbar conjunctival areas

[2] = tested on: laser-induced hypertensive primates; assay: IOP in laser-induced ocular hypertensive monkeys (lasered MIOP), topical dosing; type: in vivo, monkey; conditions: for MIOP IOP % Reduction, 1 hour: 1 hour post-dose; for MIOP IOP % Reduction, 3 hours: 3 hours post-dose; for MIOP IOP % Reduction, 6 hours: 6 hours post-dose
Method: Monkey intraocular pressure (MIOP) were obtained from laser-induced hypertensive primates in the manner described in Examples 1 and 4 below at 1, 3, and 6 hours post-dose.
(§1) The hydrochloride salt of Compound II, also known as fasudil hydrochloride or just fasudil, was topically administered to eyes of ocular normotensive and hypertensive monkeys, New Zealand Albino (NZA) and Dutch Belted (DB) rabbits.

[3] = tested on: New Zealand Albino (NZA) rabbit; assay: IOP in New Zealand Albino rabbits, topical dosing; type: in vivo; conditions: four hour dose response
Method: as §1
A dose study similar to that described in Example 2 was conducted with the NZA rabbit. Compound II (hydrochloride) was administered in a topical ocular fashion in doses of 50, 125 and 250 μg.
Other isoquinolinesulfonamides were topically administered to the eyes of New Zealand Albino (NZA) rabbits.
All drugs were administered to eyes in a topical manner at a dose=500 μg (2×25 μl). All compounds were formulated in phosphate buffered saline containing 0.01% benzalkonium chloride, and in all instances N=7.

[4] = tested on: ocular normotensive monkey; assay: IOP in ocular normotensive monkeys, topical dosing; type: in vivo, cynomolgus monkey
Method: as §1
The effect of repeated doses of Compound II on the magnitude and duration of IOP reduction was evaluated in ocular normotensive monkeys.

[5] = tested on: Dutch Belted (DB) rabbit; assay: IOP in Dutch Belted rabbits, topical dosing; type: in vivo
Method: as §1
Compound II (hydrochloride) was administered topically to the eyes of Dutch Belted (DB) rabbits in doses of 75 and 150 μg.

O=S(=O)(c1cccc2c(Cl)nccc12)N1CCNCC1 [1-(1-chloro-5-isoquinolinesulfonyl)-piperazine]
Guinea Pig Hyperemia (Cumulative over 4 hours) [1]: 10% | MIOP IOP % Reduction, 1 hour ([2]; dose 500 μg): 7.9% | MIOP IOP % Reduction, 3 hours ([2]; dose 500 μg): 11.9% | MIOP IOP % Reduction, 6 hours ([2]; dose 500 μg): 9.4%

CC1CN(S(=O)(=O)c2cccc3cnccc23)C(C)CN1 (stereo not shown) [D, 1-(5-isoquinolinesulfonyl)-2,5-dimethylpiperazine]
Guinea Pig Hyperemia (Cumulative over 4 hours) [1]: 20% | MIOP IOP % Reduction, 1 hour ([2]; dose 500 μg): 36.3% | MIOP IOP % Reduction, 3 hours ([2]; dose 500 μg): 32.8% | MIOP IOP % Reduction, 6 hours ([2]; dose 500 μg): 19.3% | IOP lowering effect ([2]; laser-induced hypertensive primates, compared with the other compounds of Example E): markedly superior IOP lowering effect

CC1CN(S(=O)(=O)c2cccc3cnccc23)CCN1 (stereo not shown) [Example H-7, 1-(5-isoquinolinesulfonyl)-3-methylpiperazine]
Guinea Pig Hyperemia (Cumulative over 4 hours) [1]: 0% | MIOP IOP % Reduction, 1 hour ([2]; dose 1000 μg): 30.9% | MIOP IOP % Reduction, 3 hours ([2]; dose 1000 μg): 20.9% | MIOP IOP % Reduction, 6 hours ([2]; dose 1000 μg): 11.6%

O=S(=O)(c1cccc2cnccc12)N1CCCNCC1 [Fasudil, hexahydro-1-(5-isoquinolinylsulfonyl)-1H-1,4-diazepine]
IOP lowering [3]: IOP was marketedly lowered below base line | IOP reduction after repeated doses ([4]; ocular normotensive monkeys, total of 900 μg in three doses, ten minutes apart): significant IOP reduction | IOP lowering ([4]; ocular normotensive primates, topical): effectively lowered IOP | Guinea Pig Hyperemia (Cumulative over 4 hours) [1]: 75% | IOP lowering [5]: lowered IOP in the DB rabbit; however, the reduction in IOP was not sustained | MIOP IOP % Reduction, 1 hour ([2]; dose 500 μg): 21.9% | MIOP IOP % Reduction, 3 hours ([2]; dose 500 μg): 14.6% | MIOP IOP % Reduction, 6 hours ([2]; dose 500 μg): 23.4% | IOP lowering ([2]; ocular hypertensive (laser-induced) primates, topical): effectively lowered IOP

Source: US6403590B1, “Use of certain isoquinolinesulfonyl compounds for the treatment of glaucoma and ocular ischemia” (Alcon Laboratories, Inc., priority 1995, dated 2002)
